The RepoRT retention time repository (doi:10.1038/s41597-019-0305-1)

Experiment: RP, Waters SunFire C18, 50 × 4.6 mm, 3.5 µm, 0.5 mL/min, estimated dead time 1.1 min; A: water + 0.1% formic acid; B: acetonitrile + 0.1% formic acid; gradient (min/%B) 0/5 7/100 8/100
Conditions: stereoisomer not certain

**Q.** Which LC retention time does the source give for `CCCCCc1c(Oc2cc(OC)cc3c2C(=O)OC3(O)CCCC)c(O)cc(O)c1C(=O)O` (stereo unspecified) here?
**A.** 5.81 min

**Q.** Which LC retention time does the source give for `CCCCCc1cc2cc(O)cc(O)c2c(=O)o1` here?
**A.** 6.08 min

**Q.** Which LC retention time does the source give for `COc1cc(OC)c2c(=O)cc(C)oc2c1C` here?
**A.** 4.51 min

**Q.** For `Cc1cc(O)c(C)c2c1C(=O)Oc1c(C)c(O)c(C(=O)O)c(C)c1O2`, which LC retention time is on record?
**A.** 5.63 min

**Q.** For `CCCCCCCCCCCCC(C(=O)O)C(C)C(=O)O` (stereo unspecified), which LC retention time is on record?
**A.** 7.45 min

**Q.** Which LC retention time does the source give for `CCCCCc1cc(OC)cc(O)c1C(=O)Oc1cc(O)c(C(=O)O)c(CCC)c1` here?
**A.** 7.47 min

**Q.** With `CCCCCCCCCCC1CC(C(=O)O)C(C)C(=O)O1` (stereo unspecified) as the molecule, how does the LC retention time read?
**A.** 6.95 min

**Q.** With `Cc1cc(O)cc(O)c1C(=O)O` as the molecule, how does the LC retention time read?
**A.** 3.41 min

**Q.** Which LC retention time does the source give for `CC1OC2(C(C)C(O)C1C)C(C)C1OC(=O)C2(C)C(=O)C1C` (stereo unspecified) here?
**A.** 5.25 min

**Q.** For `OCC(O)C(O)CO` (stereo unspecified), which LC retention time is on record?
**A.** 4.05 min

**Q.** For `Cc1cc(OC(=O)c2c(C)cc(O)cc2O)cc(O)c1C(=O)OCC(O)C(O)CO` (stereo unspecified), which LC retention time is on record?
**A.** 4.52 min

**Q.** For `COC(=O)c1c(C)cc(OC(=O)c2c(C)cc(O)c(C=O)c2O)c(C)c1O`, which LC retention time is on record?
**A.** 7.14 min

**Q.** For `COC1=C(O)c2cc3oc(C(C)=O)c(O)c3c(O)c2C(=O)C1=O`, which LC retention time is on record?
**A.** 4.27 min

**Q.** For `CCC(C)CC(C)C(O)C(C)C(=O)OC(C(C)CC(C)CC)C(C)C(=O)O` (stereo unspecified), which LC retention time is on record?
**A.** 7.83 min

**Q.** Which LC retention time does the source give for `COc1c(O)c(O)c2c(c1O)C(=O)c1oc(C(C)=O)c(O)c1C2=O` here?
**A.** 4.5 min

**Q.** For `CC(=O)OC1C(C)C(C)OC2(C(C)C3OC(=O)C2(C)C(=O)C3C)C1C` (stereo unspecified), which LC retention time is on record?
**A.** 5.84 min
